# Test results: ChEMBL document CHEMBL1909046, “DrugMatrix in vitro pharmacology data”
# Experiments:
# [1] = molecular target: Protein phosphatase 3 catalytic subunit alpha (Homo sapiens, UniProt Q08209); set-up: species or system Escherichia coli;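 note: inhibition of calcineurin (PP2B) enzyme activity, measured with DiFMUP as the substrate; in other assays of this panel Not Active means under 50% inhibition at 10 µM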
# [2] = DRUGMATRIX: Sigma2 radioligand binding (ligand: [3H] Ifenprodil); type: cell membranes, Rattus norvegicus, Wistar, Brain, Membrane; conditions: Not Active = under 50% inhibition at 10 µM
# [3] = molecular target: Cannabinoid receptor 1 (Homo sapiens, UniProt P21554); type: cell membranes, Membrane; conditions: chem-1; note: in other assays of this panel Not Active means under 50% inhibition at 10 µM
# Sequence of Cannabinoid receptor 1 (P21554 whole entry): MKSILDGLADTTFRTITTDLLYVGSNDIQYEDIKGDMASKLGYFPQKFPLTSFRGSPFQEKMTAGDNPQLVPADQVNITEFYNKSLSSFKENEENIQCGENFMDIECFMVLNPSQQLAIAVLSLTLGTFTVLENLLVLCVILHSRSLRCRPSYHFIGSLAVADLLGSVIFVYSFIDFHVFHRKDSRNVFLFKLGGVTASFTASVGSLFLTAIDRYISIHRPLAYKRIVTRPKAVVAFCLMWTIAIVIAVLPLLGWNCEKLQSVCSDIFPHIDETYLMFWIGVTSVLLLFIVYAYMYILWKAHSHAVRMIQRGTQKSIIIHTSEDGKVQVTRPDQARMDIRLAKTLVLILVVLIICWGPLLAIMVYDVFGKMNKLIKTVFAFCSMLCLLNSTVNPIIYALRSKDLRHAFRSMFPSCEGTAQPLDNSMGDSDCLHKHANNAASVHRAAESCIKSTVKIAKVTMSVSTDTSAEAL
# [4] = DRUGMATRIX: Leukotriene, BLT (LTB4) radioligand binding (ligand: [3H]LTB4); type: cell membranes, Membrane; conditions: u-937; Not Active = under 50% inhibition at 10 µM
# [5] = molecular target: T1, Alpha-2A adrenergic receptor (Homo sapiens, UniProt P08913); type: cell membranes, Sf9, Membrane; note: in other assays of this panel Not Active means under 50% inhibition at 10 µM
# T1 sequence (P08913 whole entry): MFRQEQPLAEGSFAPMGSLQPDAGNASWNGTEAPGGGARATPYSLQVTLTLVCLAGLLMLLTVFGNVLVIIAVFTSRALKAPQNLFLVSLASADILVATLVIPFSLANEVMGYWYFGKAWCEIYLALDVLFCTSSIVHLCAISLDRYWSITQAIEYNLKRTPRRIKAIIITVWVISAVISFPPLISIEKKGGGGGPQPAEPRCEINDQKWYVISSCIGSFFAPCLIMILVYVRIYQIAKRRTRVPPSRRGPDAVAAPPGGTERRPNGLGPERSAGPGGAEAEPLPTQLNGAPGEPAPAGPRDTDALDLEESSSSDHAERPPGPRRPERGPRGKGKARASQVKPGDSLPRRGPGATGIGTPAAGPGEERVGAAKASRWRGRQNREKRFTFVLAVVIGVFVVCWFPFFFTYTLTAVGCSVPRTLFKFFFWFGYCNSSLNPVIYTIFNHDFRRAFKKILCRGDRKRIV
# [6] = molecular target: Beta-2 adrenergic receptor (Homo sapiens, UniProt P07550); assay: DRUGMATRIX: Adrenergic beta2 radioligand binding (ligand: [3H] CGP-12177); type: cell membranes, Membrane; conditions: cho; Not Active = under 50% inhibition at 10 µM
Compound,IC50 [1],IC50 [2],Ki [2],IC50 [3],IC50 [4],Ki [4],IC50 ([5]; read-out: IC50),Ki ([5]; read-out: Ki),IC50 [6],IC50 ([5]; sf9),Ki [1],Ki [3],"IC50 ([5]; sf9, read-out: IC50)",Ki [6],Ki ([5]; sf9)
CC(C)[C@@]1(NC(=O)[C@@H]2C[C@@H]3c4cccc5[nH]cc(c45)C[C@H]3N(C)C2)O[C@@]2(O)[C@@H]3CCCN3C(=O)[C@H](Cc3ccccc3)N2C1=O.CS(=O)(=O)O [DIHYDROERGOCRISTINE MESYLATE],Not Active,Not Active,Not Active,Not Active,Not Active,Not Active,1.99 nM,0.747 nM,Not Active,–,–,–,–,–,–
CC[C@@]1(O)C[C@H](O[C@H]2C[C@H](N(C)C)[C@H](O[C@H]3C[C@H](O)[C@H](O[C@H]4CCC(=O)[C@H](C)O4)[C@H](C)O3)[C@H](C)O2)c2c(cc3c(c2O)C(=O)c2c(O)cccc2C3=O)[C@H]1C(=O)OC [ACLARUBICIN],Not Active,Not Active,Not Active,Not Active,Not Active,Not Active,–,–,Not Active,Not Active,–,–,–,–,–
CCn1cc(C(=O)O)c(=O)c2cc(F)c(N3CCNCC3)cc21 [NORFLOXACIN],Not Active,Not Active,Not Active,Not Active,Not Active,Not Active,–,–,Not Active,Not Active,–,–,–,–,–
Cc1c(O)c(=O)ccn1C [DEFERIPRONE],Not Active,Not Active,Not Active,Not Active,Not Active,Not Active,–,–,Not Active,Not Active,–,–,–,–,–
NC1=NC(=O)C(c2ccccc2)O1 (centres undefined) [PEMOLINE],Not Active,Not Active,Not Active,Not Active,Not Active,Not Active,–,–,Not Active,Not Active,–,–,–,–,–
Sc1ncnc2nc[nH]c12 [MERCAPTOPURINE ANHYDROUS],Not Active,Not Active,Not Active,Not Active,Not Active,Not Active,–,–,Not Active,Not Active,–,–,–,–,–
O=c1[nH]c(=O)n([C@H]2C[C@H](O)[C@@H](CO)O2)cc1I [IDOXURIDINE],Not Active,Not Active,Not Active,Not Active,Not Active,Not Active,–,–,Not Active,Not Active,–,–,–,–,–
CNNCc1ccc(C(=O)NC(C)C)cc1 [PROCARBAZINE],Not Active,Not Active,Not Active,Not Active,Not Active,Not Active,–,–,Not Active,Not Active,–,–,–,–,–
CC(C)C(=O)Nc1ccc([N+](=O)[O-])c(C(F)(F)F)c1 [FLUTAMIDE],Not Active,Not Active,Not Active,Not Active,Not Active,Not Active,–,–,Not Active,Not Active,–,–,–,–,–
LEAD (II) ACETATE,Not Active,Not Active,Not Active,Not Active,Not Active,Not Active,–,–,Not Active,–,Not Active,Not Active,3600 nM,Not Active,–
C[C@H]1c2cccc(O)c2C(=O)C2=C(O)[C@]3(O)C(=O)C(C(N)=O)=C(O)[C@@H](N(C)C)[C@@H]3[C@@H](O)[C@@H]21.O [DOXYCYCLINE],Not Active,Not Active,Not Active,Not Active,Not Active,Not Active,–,–,Not Active,Not Active,–,–,–,–,–
COc1ccc(C[C@H]2NC[C@H](O)[C@H]2OC(C)=O)cc1 [ANISOMYCIN],Not Active,Not Active,Not Active,Not Active,Not Active,Not Active,–,–,Not Active,Not Active,Not Active,Not Active,–,Not Active,Not Active
